We go through two compounds from patent publication US20080199518A1, “Controlled-release formulation of piperazine-piperidine antagonists and agonists of the 5-HT1A receptor having enhanced intestinal dissolution” (priority 2006, published 2008).

A word on the solubility: it is how much of the substance goes into solution per volume.

Like-named read-outs stand apart in the source and are kept apart here.

One data set can be described thus: physchem. In kind it is physicochemical. On the procedure: The solubility of one of the compounds described herein, 5-fluoro-8-{4-[4-(6-methoxyquinolin-8-yl)piperazin-1-yl]piperidin-1-yl}quinoline, as a function of pH was determined experimentally. In the study, suspensions of about 0.5-40 mg/mL of the compound were prepared in water and various concentrations of hydrochloric acid and sodium hydroxide. The suspensions were measured for pH after equilibration at ambient temperature. The suspensions were then filtered through a suitable filter for concentrated samples and centrifuged for lower concentrations, with confirmation that the supernatants were particulate-free by laser. The filtrates were then analyzed by HPLC.

The conditions of data set [1]: not told.

As to `COc1cc(N2CCN(C3CCN(c4ccc(F)c5cccnc45)CC3)CC2)c2ncccc2c1` [5-fluoro-8-{4-[4-[(6-methoxyquinolin-8-yl)piperazin-1-yl]piperidin-1-yl}quinoline], in “physchem”, the “solubility around neutral pH of the lower gastrointestinal tract” value is reported as “less than 1 μg/mL” and the water solubility result was “approximately 0.04 μg/mL”. For the same compound, the permeability entry in data set [1] was “high permeability”.

As to `COc1cc(N2CCN(C3CCN(c4ccc(F)c5cccnc45)CC3)CC2)c2ncccc2c1.O=C(O)CCC(=O)O.O=C(O)CCC(=O)O.O=C(O)CCC(=O)O` [5-fluoro-8-{4-[4-(6-methoxyquinolin-8-yl)piperazin-1-yl]piperidin-1-yl}quinoline trisuccinate], the solubility result is “sub-microgram per milliliter level” in the data set “physchem” (pH greater than about six) and about 1000 µg/mL in the data set “physchem” (water, thermodynamic from solid, trisuccinate salt, aqueous, read-out: aqueous solubility).
